Measured values from patent EP2218450A1, “Memantine for treating bipolar mood disorders resistant to conventional treatments” (Serra, Gino, priority 2009, dated 2010).
Like-named read-outs stand apart in the source and are kept apart here.

How the values were obtained:
[1] = tested on: dopamine receptor sensitization; settings: cited from earlier work
depressive symptoms = settings: cited from earlier work
addictions = settings: cited from earlier work
OCD = settings: cited from earlier work
binge eating disorder = settings: five obese patients affected by binge eating disorder; cited from earlier work
catatonic schizophrenia = settings: cited from earlier work
[2] = tested on: Pervasive development disorders; settings: five open clinical studies and one case report; cited from earlier work
NMDA glutamate receptor = settings: compared to more powerful NMDA antagonists such as phencyclidine, ketamine and MK-801; cited from earlier work
bipolar patients = tested on: bipolar patients
Method: We report, in order to exemplify, the most clinically significant cases in bipolar patients (DSM IV-TR) resistant to hitherto available treatments.
Memantine was administered at 10-30 mg/day (according to the doses used for Alzheimer Disease and in many off-label uses of the drug in other psychiatric disorders) to 18 bipolar patients (mean age 42, range 24-61, SD 11): 13 BP type 1 (11 women and 2 men) and 5 BP type 2 (3 women and 2 men).
The Memantine treatment was added to the ongoing treatment which was left unmodified. The severity of the patients' condition before Memantine, and the change after Memantine addition was evaluated on the GCI-BP Overall Bipolar Illness scale: • GCI-BP Overall Bipolar Illness: Severity • 1. Normal, not ill; • 2. Minimally ill; • 3. Mildly ill; • 4. Moderately ill; • 5. Markedly ill; • 6. Severely ill; • 7. Very severely ill.
All patients have been followed-up for 24 weeks. […] Very much improved • 2. Much improved • 3. […] No change • 5. Minimally worse • 6. Much worse • 7. Very much worse

[3] = at 24 weeks, Memantine 10-30 mg/day added to ongoing treatment, 18 bipolar patients

## O=C(O)C1CN(CCCP(=O)(O)O)CCN1 (stereo not drawn) [CPP]
[1]
  prevention of dopamine D2 receptors sensitization induced by imipramine: fails to pevent

## CC12CC3CC(C)(C1)CC(N)(C3)C2 [Memantine]
Depressive symptoms; patient, 10 mg/die
  effect on depressive symptoms: improvement in the depressive symptoms
Depressive symptoms; person, 20 mg/die in combination with conventional antidepressant treatment, within a week
  effect on depressive symptoms: improvement in various depressive symptoms
addictions
  benefit in nicotine or cocaine addiction: no benefit has been detected
  symptoms of heroin withdrawal: effective in reducing the symptoms of heroin withdrawal
addictions; one study (41)
  symptoms of alcohol withdrawal syndrome: reduction of the symptoms of alcohol withdrawal syndrome
addictions; two studies (39, 40)
  craving for alcohol: reduction in craving for alcohol
addictions; two studies (42, 43), in one the effect did not significantly differ from placebo
  alcohol consumption: reduction in alcohol consumption
OCD; case reports, three patients with OCD, 5-15 mg a day
  patients with symptomatic improvements: Two
OCD; open-label study, out of 14, Memantine 20 mg in combination with SSRIs
  patients with symptomatic improvement: 6 patients
Binge eating disorder
  effect on appetite, binge eating and body weight: diminished appetite, the disappearance of binge eating (in two out of five patients) and a reduction of body weight
Catatonic schizophrenia; in combination with an atypical antipsychotic
  effect in schizophrenia, controlled clinical trial: No improvement was observed
Catatonic schizophrenia; three case reports, 10 mg twice a day in two patients, 10 mg per day in the other
  effect on symptoms of catatonic schizophrenia: improvement in the symptoms
[2]
  effect on symptoms: symptomatic improvement
NMDA glutamate receptor
  affinity for the receptor: low affinity
Bipolar patients; after 24 weeks of Memantine treatment, 18 bipolar patients
  patients very much or much improved: 72.2%
Bipolar patients; among the ten rapid cyclers, 24 weeks
  rapid cyclers that reached stability: six
Bipolar patients; [3]
  patients remained unchanged (score 4), GCI-BP overall Bipolar Illness: Change from preceding phase: 3 patients
  patients scored 1 (very much improved), GCI-BP overall Bipolar Illness: Change from preceding phase: 9 patients
  patients scored 2 (much improved), GCI-BP overall Bipolar Illness: Change from preceding phase: 4 patients
  patients scored 3 (minimally improved), GCI-BP overall Bipolar Illness: Change from preceding phase: 2 patients
Bipolar patients; range 6-132, SD 48,4, Memantine 10-30 mg/day
  mean time to improvement: 55 days

## C[C@]12N[C@H](Cc3ccccc31)c1ccccc12 [MK.801]
[1]
  prevention of dopamine receptor sensitization induced by electroconvulsive shock: completely prevents
  prevention of dopamine receptor sensitization induced by imipramine: completely prevents
